The experiment addresses T1, human MRGPR X4 (Homo sapiens, UniProt Q96LA9).
T1 construct: expressed in transfected cells
The experiment is described as follows: MRGPR X4 antagonist activity, IP-One Gq HTRF assay in stably transfected HEK cells. The class given is cell-based. The gist of the method: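 IC50 comes from HTRF IP-1 accumulation in stably transfected HEK cells expressing human MRGPR X4. Compounds (10 uM top, 1:3 serial, 10 points) were co-incubated with 10 μM bilirubin, 20 μM deoxycholic acid or 100 μM conjugated bilirubin in LiCl-containing buffer, pH 8, for 1 h at 37 °C plus 30 min at room temperature.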
For orientation: In TR-FRET formats the signal depends on donor and acceptor labels being close together.

Setting [1] is: versus 20 μM deoxycholic acid agonist, HEK cells expressing human MRGPR X4, read-out: MRGPRX4 Antagonist Activity.

Like-named read-outs stand apart in the source and are kept apart here. A value given as a limit tells only on which side of the number the result lay.

This passage reports IC50 results from patent US20240254089A1, “MODULATORS OF MAS-RELATED G-PROTEIN RECEPTOR X4 AND RELATED PRODUCTS AND METHODS” (ESCIENT PHARMACEUTICALS, INC., priority 2020, published 2024).

T1 sequence (Q96LA9 whole entry): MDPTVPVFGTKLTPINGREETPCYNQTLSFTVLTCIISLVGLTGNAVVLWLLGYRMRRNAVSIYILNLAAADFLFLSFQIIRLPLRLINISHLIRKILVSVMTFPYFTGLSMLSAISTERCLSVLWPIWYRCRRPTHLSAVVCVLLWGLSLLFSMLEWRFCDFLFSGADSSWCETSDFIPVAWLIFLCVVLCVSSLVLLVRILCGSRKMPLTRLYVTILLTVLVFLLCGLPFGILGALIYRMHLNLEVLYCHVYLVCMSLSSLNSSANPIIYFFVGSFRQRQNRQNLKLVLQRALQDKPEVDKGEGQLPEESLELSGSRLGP

The molecule `Cc1ccncc1CCNC(=O)c1cn(Cc2ccc(Cl)cc2)c2ccccc12` [Compound 161] returned an IC50 of 0.1 to 0.5 µM.
In turn, `O=C(NCCc1ccccc1F)c1cn(Cc2ccc(Cl)cc2)c2ccccc12` [Compound 170] gave an IC50 of 0.1 to 0.5 µM.
In turn, `Cn1c(Cn2nc(C(=O)NCCc3nnc4ccccn34)c3ccccc32)nc2ccccc21` [Compound 544] registered an IC50 of 0.1 to 0.5 µM.
For the molecule `Cn1ccc(CNC(=O)c2nn(Cc3ccc(Cl)cc3)c3ccccc23)n1` [Compound 354], the IC50 was greater than 2.5 µM.
In turn, `COc1cc(Cl)ccc1Cn1nc(C(=O)NCCc2cccnc2)c2ccccc21` [Compound 114] showed an IC50 of 1 to 2.5 µM.
Molecule `O=C(NCc1ccc(-n2cccn2)cc1)c1nn(Cc2ccc(Cl)cc2)c2ccccc12` [Compound 359] came in with an IC50 greater than 2.5 µM.
With `O=C(NCCOCc1ccccc1)c1nn(Cc2ccc(Cl)cc2)c2ccccc12` [Compound 337], the IC50 under setting [1] was greater than 2.5 µM.
`N#Cc1cccc2c1c(C(=O)NCCc1nnc3ccccn13)nn2Cc1ccc(Cl)cc1` [Compound 546] yielded an IC50 of 0.1 to 0.5 µM.
`Cn1c(Cn2nc(C(=O)NCCc3nnc4ccccn34)c3ccccc32)nc2cc(F)ccc21` [Compound 574] came in with an IC50 of 0.1 to 0.5 µM.
As to `O=C(NCCc1nnc2ccccn12)c1nn(Cc2ccc3c(c2)CCCC3)c2ccccc12` [Compound 559], the IC50 was less than 0.1 µM.
Regarding `O=C(Cn1nc(C(=O)NCCc2nnc3ccccn23)c2ccccc21)NCC1CCCCC1` [Compound 472], under setting [1], the IC50 was greater than 2.5 µM.
The molecule `N=C(N)NCCCCNC(=O)c1nn(Cc2ccc(Cl)cc2)c2ccccc12` [Compound 346] gave an IC50 of 1 to 2.5 µM.
The same measure, in the same setting: for `COc1ccc2c(c1)c(C(=O)NCCc1nnc3ccccn13)nn2Cc1ccc(Cl)cc1` [Compound 543] the value was 0.1 to 0.5 µM; for `CC(C)c1cnnn1CCNC(=O)c1nn(Cc2ccc(Cl)cc2)c2ccccc12` [Compound 143, 1-(4-chlorobenzyl)-N-(2-(5-isopropyl-1H-1,2,3-triazol-1-yl)ethyl)-1H-indazole-3-carboxamide], 0.1 to 0.5 µM.
Regarding `O=C(NCCc1ccc(Cl)c(F)c1)c1cn(Cc2ccccc2F)c2ccccc12` [Compound 224], the IC50 is greater than 2.5 µM.
Still for that read-out and setting: in the case of `O=C(NCCc1nnc2ccccn12)c1nn(Cc2nc3ccccc3o2)c2ccccc12` [Compound 438] it was 0.1 to 0.5 µM; in that of `COCCn1cnnc1CCNC(=O)c1nn(Cc2ccc(Cl)cc2)c2ccccc12` [Compound 92], 0.501 to 1 µM.
For the molecule `Cc1cc(S(=O)(=O)NC(=O)c2nn(Cc3ccc(OC(F)F)cc3)c3ccccc23)ccc1F` [Compound 290], the IC50 under setting [1] was in the range of 1 to 2.5 µM.
As to `Cc1cccc(C(F)(F)F)c1Cn1nc(C(=O)NCCc2nnc3ccccn23)c2ccccc21` [Compound 457], the IC50 was greater than 2.5 µM.
Turning to `Cn1cc(CNC(=O)c2nn(Cc3ccc(Cl)cc3)c3ccccc23)cn1` [Compound 353], the IC50 is greater than 2.5 µM.
Molecule `Cc1ccc(Cn2nc(C(=O)NCCc3nc4c(s3)COCC4)c3ccccc32)cc1` [Compound 65] returned an IC50 of 0.1 to 0.5 µM.
As to `O=C(NCCc1nnc2ccccn12)c1nn(Cc2cccc3c2CCC3)c2ccccc12` [Compound 545], the IC50 is 0.1 to 0.5 µM.
`O=C(NCc1ccc(-n2ccnc2)cc1)c1nn(Cc2ccc(Cl)cc2)c2ccccc12` [Compound 426] registered an IC50 of 1 to 2.5 µM.
Same read-out and setting: in the case of `O=C(NCCc1ccc(F)cc1)c1cn(Cc2cccc(F)c2)c2ccccc12` [Compound 236] it was greater than 2.5 µM; in that of `O=C(NCCCc1ccc(Cl)c(F)c1)c1cn(Cc2ccc(Cl)cc2)c2ccccc12` [Compound 204], 1 to 2.5 µM.
In the case of `O=C(NCCc1nnc2ccccn12)c1nn(Cc2ccc(C3CC3)cc2)c2ccccc12` [Compound 490], the IC50 was less than 0.1 µM.
On to `O=C(CS(=O)(=O)c1cn(Cc2ccc(Cl)cc2)c2ccccc12)Nc1cccc(F)c1` [Compound 240], for which the IC50 under setting [1] was in the range of 0.1 to 0.5 µM.
Regarding `Cc1ccc(Cn2cc(C(=O)NCCc3c[nH]c4ccccc34)c3ccccc32)cc1` [Compound 169], the IC50 lay in the range of 0.1 to 0.5 µM.
For `O=C(NCCN1CCOCC1)c1nn(Cc2ccc(Cl)cc2)c2ccccc12` [Compound 351], the IC50 was greater than 2.5 µM.
Molecule `O=C(NCCc1cccnc1)c1cn(Cc2ccc(OC(F)(F)F)cc2)c2ccccc12` [Compound 173] gave an IC50 of 0.1 to 0.5 µM.
`Cc1ccc(Cn2nc(C(=O)NCCc3nc4c(s3)CCCC4)c3ccccc32)cc1` [Compound 28] gave an IC50 of 0.1 to 0.5 µM.
`O=C(NCCc1c[nH]c2ccccc12)c1nn(Cc2ccc(OC(F)F)cc2)c2ccccc12` [Compound 71]: the IC50 is 0.501 to 1 µM.
Take `Cc1cccc(S(=O)(=O)NC(=O)c2nn(Cc3ccc(OC(F)F)cc3)c3ccccc23)c1F` [Compound 278]: the IC50 under setting [1] was 1 to 2.5 µM.
The molecule `O=C(NCCc1cccnc1)c1cn(Cc2cccc(Cl)c2)c2ccccc12` [Compound 195] displayed an IC50 of 0.501 to 1 µM.
Take `O=C(NCCc1nnc2ccccn12)c1nn(Cc2ccc(Cl)c(Cl)c2)c2ccc(F)cc12` [Compound 571]: the IC50 was less than 0.1 µM.
Turning to `CN(C)C(=O)CS(=O)(=O)c1cn(Cc2ccc(Cl)cc2)c2ccccc12` [Compound 252], under setting [1], the IC50 was in the range of 1 to 2.5 µM.
For the molecule `O=C(NCCc1nnc2ccccn12)c1nn(Cc2cc3c(cc2Cl)OCO3)c2ccc(F)cc12` [Compound 536], the IC50 is less than 0.1 µM.
`Cc1[nH]c2ccc(O)cc2c1CCNC(=O)c1nn(Cc2ccc(Cl)cc2)c2ccc(F)cc12` [Compound 534] showed an IC50 of less than 0.1 µM.
`O=C(O)c1nn(Cc2ccc(Cl)cc2)c2cccc(F)c12` [Compound 327] had an IC50 greater than 2.5 µM.
For the molecule `O=C(CSc1cn(Cc2ccc(Br)cc2)c2ccccc12)N1CCCC1` [Compound 315, 2-(4(1H-indol-3-yl)thio)-1-(pyrrolidin-1-yl)ethan-1-one], under setting [1], the IC50 lay in the range of 1 to 2.5 µM.
For the molecule `CC(C)(O)c1cn(CCNC(=O)c2nn(Cc3ccc(Cl)cc3)c3ccccc23)nn1` [Compound 140], the IC50 lay within 0.501 to 1 µM.
Consider `O=C(NCCc1nnc2ccccn12)c1nn(Cc2ccc(Cl)cc2)c2cccc(F)c12` [Compound 15], for which the IC50 is less than 0.1 µM.
With `O=C(NCCc1nnc2ccccn12)c1nn(Cc2cccc(C(F)(F)F)c2F)c2ccccc12` [Compound 459], the IC50 lay within 0.1 to 0.5 µM.
Consider `O=C(NCC1CCS(=O)(=O)CC1)c1nn(Cc2ccc(Cl)cc2)c2ccccc12` [Compound 390], for which, under setting [1], the IC50 is greater than 2.5 µM.
Turning to `O=C(CS(=O)(=O)c1cn(Cc2ccc(Cl)cc2)c2ccccc12)Nc1ccc(Cl)c(Cl)c1` [Compound 249], the IC50 under setting [1] lay in the range of 1 to 2.5 µM.
As to `O=C(NCCc1ccccn1)c1cn(CCc2ccc(Cl)cc2)c2ccccc12` [Compound 217], the IC50 under setting [1] was in the range of 1 to 2.5 µM.
`O=C(NCCc1nnc2ccccn12)c1nn(Cc2ccc3c(c2)CCC3)c2ccccc12` [Compound 494] yielded an IC50 of less than 0.1 µM.
On to `Cc1nc(CCNC(=O)c2nn(Cc3ccc(Cl)cc3)c3ccccc23)sc1C` [Compound 34], for which the IC50 was 0.1 to 0.5 µM.
Molecule `O=C(NCCc1nnc2ccccn12)c1nn(Cc2ccc(C(F)(F)F)cc2Cl)c2ccccc12` [Compound 553] gave an IC50 of less than 0.1 µM.
Still for that read-out and setting: for `Cc1ccc(C(=O)Cn2nc(C(=O)NCCc3nnc4ccccn34)c3ccccc32)c(C)c1` [Compound 483] the value was 0.501 to 1 µM; for `Cn1c(CCNC(=O)c2nn(Cc3ccc(Cl)cc3)c3ccccc23)nc2ccccc21` [Compound 397], 0.1 to 0.5 µM.
`O=C(NCCc1coc2ccccc12)c1nn(Cc2ccc(Cl)cc2)c2ccccc12` [Compound 356] yielded an IC50 of 0.501 to 1 µM.
Consider `COc1cc(Cl)ccc1Cn1nc(C(=O)NCCc2nc3c(s2)CCCC3)c2ccccc21` [Compound 123], for which the IC50 was greater than 2.5 µM.
In turn, `CC(=O)Nc1cccc(CNC(=O)c2nn(Cc3ccc(Cl)cc3)c3ccccc23)c1` [Compound 377] gave an IC50 greater than 2.5 µM.
Take `O=C(NCCc1nnc2n1CCCCC2)c1nn(Cc2ccc(Cl)cc2)c2ccc(Cl)cc12` [Compound 8]: the IC50 was less than 0.1 µM.
The molecule `O=C(NCCc1nnc2ccccn12)c1nn(Cc2ccc3sccc3c2)c2ccc(F)cc12` [Compound 538] yielded an IC50 of less than 0.1 µM.
On the same count and under the same terms, for `O=C(NCCc1nc2ccccc2s1)c1nn(Cc2ccc(Cl)cc2)c2ccccc12` [Compound 46] the value was 0.1 to 0.5 µM.
Consider `Cc1ccc(Cn2nc(C(=O)NCCc3cc4ccccc4s3)c3ccccc32)cc1` [Compound 84], for which the IC50 was 0.501 to 1 µM.
Turning to `COC(=O)c1ccc(S(=O)(=O)NC(=O)c2nn(Cc3ccc(OC(F)F)cc3)c3ccccc23)cc1` [Compound 277], the IC50 under setting [1] was 1 to 2.5 µM.
For the molecule `Cc1cccc(S(=O)(=O)NC(=O)c2nn(Cc3ccc(Cl)cc3)c3ccccc23)n1` [Compound 305], under setting [1], the IC50 was greater than 2.5 µM.
Consider `Cc1cccn2c(CCNC(=O)c3nn(Cc4ccc(Cl)cc4)c4ccccc34)nnc12` [Compound 4], for which the IC50 was less than 0.1 µM.
Consider `Cc1cc(C)cc(S(=O)(=O)NC(=O)c2nn(Cc3ccc(OC(F)F)cc3)c3ccccc23)c1` [Compound 268], for which the IC50 under setting [1] was in the range of 0.501 to 1 µM.
`Cn1nccc1Cn1nc(C(=O)NCCc2nnc3ccccn23)c2ccccc21` [Compound 515] returned an IC50 greater than 2.5 µM.
For `O=C(NCCc1nc2c(s1)CCCC2)c1nn(Cc2ccc(Cl)cc2)c2ccccc12` [Compound 29], the IC50 was 0.1 to 0.5 µM.
On the same count and under the same terms, in the case of `O=C(NCCc1cccnc1)c1cn(Cc2cccc(OC(F)(F)F)c2)c2ccccc12` [Compound 186] it was 0.501 to 1 µM; in that of `O=C(NCCc1nnc2ccccn12)c1nn(Cc2ccc(Cl)c(Cl)c2)c2ccccc12` [Compound 526], less than 0.1 µM.
`Cc1oc(-c2ccccc2F)nc1Cn1nc(C(=O)NCCc2nnc3ccccn23)c2ccccc21` [Compound 514] gave an IC50 of 0.1 to 0.5 µM.
On the same count and under the same terms, in the case of `Cc1nnc(CCNC(=O)c2nn(Cc3ccc(Cl)cc3)c3ccccc23)n1C` [Compound 80] it was 0.501 to 1 µM; in that of `O=C(NCCc1ccncn1)c1nn(Cc2ccc(Cl)cc2)c2ccccc12` [Compound 121], 1 to 2.5 µM.
With `Cc1ccc(Cn2cc(C(=O)NCCc3nc4c(s3)CCCC4)c3ccccc32)cc1` [Compound 165], the IC50 was 0.1 to 0.5 µM.
